Measured values: ChEMBL document CHEMBL3875185, “Structure-anticonvulsant activity studies in the group of (E)-N-cinnamoyl aminoalkanols derivatives monosubstituted in phenyl ring with 4-Cl, 4-CH3 or 2-CH3” (Bioorg Med Chem, 2017)
Activity calls are given as the source filed them. The calls are words filed in the database; no cut-off is given here.

Key:
[1] = test system: Mus musculus; assay: Anticonvulsant activity in ip dosed maximal electroshock induced seizure mouse model assessed as suppression in hindlimb tonic extension by measuring time to peak effect; type: functional
[2] = test system: Mus musculus; assay: Anticonvulsant activity in maximal electroshock induced seizure mouse model assessed as suppression in hindlimb tonic extension at 100 mg/kg, ip measured at 0.5 hrs post dose; type: functional, organism-based
[3] = test system: Mus musculus; assay: Neurotoxicity in mouse assessed as induction of motor impairment at 100 mg/kg, ip measured at 0.5 hrs post dose by rotarod method; type: toxicity, organism-based; conditions: in vivo
[4] = test system: Mus musculus; assay: Neurotoxicity in ip dosed mouse assessed as induction of motor impairment by measuring time to peak effect by rotarod method; type: toxicity, organism-based; conditions: in vivo
[5] = test system: Mus musculus; assay: Anticonvulsant activity in ip dosed maximal electroshock induced seizure mouse model assessed as suppression in hindlimb tonic extension; type: functional
[6] = Neurotoxicity in ip dosed mouse; type: toxicity, organism-based; conditions: in vivo
[7] = Protection index, ratio of TD50 for neurotoxicity in ip dosed mouse to ED50 for ip dosed maximal electroshock induced seizure mouse model; type: toxicity, organism-based; conditions: in vivo, read-out: Ratio TD50/ED50
[8] = test system: Mus musculus; assay: Anticonvulsant activity in maximal electroshock induced seizure mouse model assessed as suppression in hindlimb tonic extension at 300 mg/kg, ip measured at 0.5 hrs post dose; type: functional, organism-based
[9] = test system: Mus musculus; assay: Anticonvulsant activity in pentylenetetrazole induced seizure mouse model assessed as no observable episode of clonic convulsion of at least 5 secs at 300 mg/kg, ip measured at 0.5 hrs post dose; type: functional, organism-based
[10] = test system: Mus musculus; assay: Neurotoxicity in mouse assessed as induction of motor impairment at 30 mg/kg, ip measured at 0.5 hrs post dose by rotarod method; type: toxicity, organism-based; conditions: in vivo
[11] = test system: Mus musculus; assay: Neurotoxicity in mouse assessed as induction of motor impairment at 300 mg/kg, ip measured at 0.5 hrs post dose by rotarod method; type: toxicity, organism-based; conditions: in vivo
[12] = test system: Mus musculus; assay: Neurotoxicity in mouse assessed as induction of motor impairment at 30 mg/kg, ip measured at 4 hrs post dose by rotarod method; type: toxicity, organism-based; conditions: in vivo
[13] = test system: Mus musculus; assay: Neurotoxicity in mouse assessed as induction of motor impairment at 100 mg/kg, ip measured at 4 hrs post dose by rotarod method; type: toxicity, organism-based; conditions: in vivo
[14] = test system: Mus musculus; assay: Neurotoxicity in mouse assessed as induction of motor impairment at 300 mg/kg, ip measured at 4 hrs post dose by rotarod method; type: toxicity, organism-based; conditions: in vivo
[15] = test system: Rattus norvegicus; assay: Neurotoxicity in Sprague-Dawley rat assessed as behavioral change at 30 mg/kg, po measured at […] post dose; type: toxicity, organism-based; conditions: in vivo
[16] = test system: Rattus norvegicus; assay: Neurotoxicity in Sprague-Dawley rat assessed as behavioral change at 30 mg/kg, po measured at 1 hr post dose; type: toxicity, organism-based; conditions: in vivo
[17] = test system: Rattus norvegicus; assay: Neurotoxicity in Sprague-Dawley rat assessed as behavioral change at 30 mg/kg, po measured at 0.5 hrs post dose; type: toxicity, organism-based; conditions: in vivo
[18] = test system: Rattus norvegicus; assay: Neurotoxicity in Sprague-Dawley rat assessed as behavioral change at 30 mg/kg, po measured at 2 hrs post dose; type: toxicity, organism-based; conditions: in vivo
[19] = test system: Rattus norvegicus; assay: Neurotoxicity in Sprague-Dawley rat assessed as behavioral change at 30 mg/kg, po measured at 4 hrs post dose; type: toxicity, organism-based; conditions: in vivo
[20] = test system: Mus musculus; assay: Anticonvulsant activity in 6-Hz induced seizure mouse model assessed as restoration of normal activity within 10 secs from stimulation at 100 mg/kg, ip at 32 mA measured at […] post dose; type: functional, organism-based
[21] = test system: Mus musculus; assay: Anticonvulsant activity in 6-Hz induced seizure mouse model assessed as restoration of normal activity within 10 secs from stimulation at 100 mg/kg, ip at 32 mA measured at 0.5 hrs post dose; type: functional, organism-based

SMILES	Activity [2]	Activity [3]	Activity [8]	Activity [9]	Activity [10]	Activity [11]	Activity [12]	Activity [13]	Activity [14]	Activity [15]	Activity [16]	Activity [17]	Activity [18]	Activity [19]	also measured
CC[C@H](CO)NC(=O)/C=C/c1ccc(Cl)cc1	Active	Toxic	–	–	–	–	–	–	–	–	–	–	–	–	Time [1]: 0.25 h; Time [4]: 0.25 h; ED50 [5]: 27.3 mg/kg; TD50 [6]: 105 mg/kg; selectivity ratio [7]: 3.85
Cc1ccc(/C=C/C(=O)NCC(C)O)cc1 (stereo not given)	–	Non-Toxic	Active	Active	Non-Toxic	Toxic	Non-Toxic	Non-Toxic	Non-Toxic	–	–	–	–	–	–
Cc1ccccc1/C=C/C(=O)NC(C)CO (stereo not given)	Active	–	Active	Active	Non-Toxic	Toxic	Non-Toxic	Non-Toxic	Non-Toxic	Non-Toxic	Non-Toxic	Non-Toxic	Non-Toxic	Non-Toxic	–
Cc1ccccc1/C=C/C(=O)N[C@H](C)CO	–	Non-Toxic	Active	Active	Non-Toxic	Toxic	Non-Toxic	Non-Toxic	Non-Toxic	Non-Toxic	Non-Toxic	Non-Toxic	Non-Toxic	Non-Toxic	Activity [20]: Active; Activity [21]: Active
Cc1ccc(/C=C/C(=O)NC(C)CO)cc1 (stereo not given)	Active	Non-Toxic	Active	Active	Non-Toxic	Toxic	Non-Toxic	Non-Toxic	Non-Toxic	Non-Toxic	Non-Toxic	Non-Toxic	Non-Toxic	Non-Toxic	–
CC[C@@H](CO)NC(=O)/C=C/c1ccc(Cl)cc1	Active	Toxic	–	–	–	–	–	–	–	–	–	–	–	–	Time [1]: 0.25 h; Time [4]: 0.25 h; ED50 [5]: 43.3 mg/kg; TD50 [6]: 56.4 mg/kg; selectivity ratio [7]: 1.3
CC[C@@H](CO)NC(=O)/C=C/c1ccc(C)cc1	–	Non-Toxic	Active	Active	Non-Toxic	Toxic	Non-Toxic	Non-Toxic	Non-Toxic	–	–	–	–	–	–
CC[C@@H](CO)NC(=O)/C=C/c1ccccc1C	Active	Non-Toxic	Active	Active	Non-Toxic	Toxic	Non-Toxic	Non-Toxic	Non-Toxic	Non-Toxic	Non-Toxic	Non-Toxic	Non-Toxic	Non-Toxic	–
Cc1ccc(/C=C/C(=O)NC2CCCCC2O)cc1 (racemic)	–	Non-Toxic	–	–	–	–	–	Non-Toxic	–	–	–	–	–	–	–
Cc1ccccc1/C=C/C(=O)NC1CCCCC1O (racemic)	–	Non-Toxic	Active	–	Non-Toxic	Non-Toxic	Non-Toxic	Non-Toxic	Non-Toxic	–	–	–	–	–	–
